# Laboratory results as given in publication PMC8250858, “A Systematic Study of the Stability, Safety, and Efficacy of the de novo Designed Antimicrobial Peptide PepD2 and Its Modified Derivatives Against Acinetobacter baumannii” (Frontiers in Microbiology, 2021).
# What was measured:
# A. baumannii 17978 = experiment: Time-kill kinetics assay in MHB; assay type: cell-based, Acinetobacter baumannii; conditions: 37°C with shaking, 4 μg/mL for both peptides
# Experimental: FIGURE 4 Time-kill kinetics assay. […] This experiment was performed in ex vivo whole rat blood at room temperature without shaking. A. baumannii (final concentration of 10^7 CFU/mL) was incubated with or without peptide (4 μg/mL) for 60 min. At the indicated time points, an aliquot of the sample was removed and diluted, and the remaining cell number was counted by plating on MHA plates. The data are expressed as the mean ± SD. […] A. baumannii (final concentration of 10^7 CFU/mL) was incubated with or without peptide at 37°C with shaking. The peptide concentration was 4 μg/mL for both peptides.
# [1] = system: A. baumannii (ATCC 17978); assay type: cell-based, Acinetobacter baumannii; conditions: ex vivo rat blood, 4 μg/mL of each peptide
# Experimental: The time-kill kinetics measurement against A. baumannii (ATCC 17978) in blood was conducted following a protocol modified from the literature ([Nagarajan et al., 2019]). […] Then, 4 μL of the peptide stock solution to be tested (2,035 μg/mL in water) was added to make the final bacterial cell number 10^7 CFU/mL and the final peptide concentration 4 μg/mL (assigned as tube A). At 2, 4, 6, 8, 10, 20, 30, 40, 50, and 60 min, 100 μL of the bacteria/blood mixture was removed from tube A and mixed with 100 μL of sterilized 2 M NaCl/50% glycerol (twofold dilution, assigned as tube B). […] Ten microliters of the mixture from tube B were mixed with 990 μL of sterilized 1 M NaCl (200-fold dilution, assigned as tube C). Ten microliters of the mixture from tube C was mixed with 90 μL of sterilized 1 M NaCl (2,000-fold dilution, assigned as tube D). Finally, ten or one hundred microliters of solution from each tube was plated on an MHA plate and incubated at 37°C overnight to count the colony number. To test whether freezing in liquid nitrogen kills part of the bacteria, pepdD2 was tested with and without freezing. […] At 0 and 60 min, the bacterial number was measured as described above. […] At the indicated time points, an aliquot of the sample was removed and diluted, and the remaining cell number was counted by plating on MHA plates. The data are expressed as the mean ± SD. […]
substance,measurement,setting,value
Ac-WKKIKKIIKKIKKI-NH2 [pepI2],Killing rate compared,A. baumannii 17978,killed A. baumannii faster than colistin sulfate
same,Killing rate compared,[1],killed bacteria faster than pepdD2
